Assays:
ATF4 = ATF4 expression inhibition assay (ATF4 luciferase reporter); type: cell-based; conditions: Homo sapiens, HEK-293T; HEK293T cells carrying the ATF4 luciferase reporter, 100 nM thapsigargin (Tg), 3 hours; read-out: ATF4 inhbition IC50
Experimental: The ATF4 reporter was prepared by fusing the human full length 5′UTR of ATF4 (NCBI Accession No. BC022088.2) upstream of the firefly luciferase coding sequence lacking the initiator methionine. The fused sequence was cloned into pLenti-EF1a-C-Myc-DDK-IRES-Puro cloning vector (Origen # PS 100085) using standard methods. Virus production was carried out by using Lenti-X™ Packaging Single Shots Protocol (Clonetech #631276). Viral particles were used to transduce HEK293T cells (ATCC # CRL-3216, ATCC Manassas, Va.), which were subsequently selected with puromycin to generate stable cell line. Cells were maintained at 37° C. and 5% CO2 in DMEM-F12 (Hyclone # SH30023.02) supplemented with 10% heat-inactivated fetal bovine serum (Gibco #16000-044), 2 mM L-glutamine (Gibco #25030-081), 100 U/ml penicillin, and 100 μg/ml streptomycin (Gibco #15140-122).
HEK293T cells carrying the ATF4 luciferase reporter were plated on 96-well plates (Nunc) at 10,000 cells per well. Cells were treated two days after seeding with 100 nM thapsigargin (Tg) (Sigma-Aldrich # T9033) in the presence of different concentrations of selected compounds ranging from 1 nM to 10 μM. Cells without treatment or cells treated with Tg alone were used as controls. Assay plates containing cells were incubated for 3 hours at 37° C.
Luciferase reactions were performed using Luciferase Assay System (Promega # E1501) as specified by the manufacturer. Luminescence was read with an integration time of 1 s and a gain of 110 using a Cytation-5 multi-mode microplate reader (BioTek). Relative luminescence units were normalized to Tg treatment (0% inhibition) and untreated cells (100% inhibition) and the percentage of ATF4 inhibition was calculated.
Accordingly, inhibition of ATF4 expression as a result of the test compound indicates suppression of the ISR pathway.

[1] = test system: Chinese hamster ovary (CHO) cells; test: Protein translation assay (puromycin labelling, western blot); type: cell-based; conditions: 2 hours, media alone = 100%; for activity at 1 µM: Cricetulus griseus, unstressed CHO cells (without Tg), 1 μM test compound, read-out: % Protein synthesis relative to untreated (1 μM test compound); for % Recovery of protein synthesis (1 μM test compound): stressed CHO cells, 300 nM Tg, Tg alone = 0%
Experimental: Chinese hamster ovary (CHO) cells were maintained at 37° C. and 5% C02 in Dulbecco's Modified Eagle's Media (DMEM) supplemented with 10% fetal bovine serum, 2 mM L-glutamine, 100 U/ml penicillin, and 100 μg/ml streptomycin. After reaching 80% of confluence, cells were detached and seeded on 6 well plates in complete media, allowed to recover overnight and treated for 2 hours with 1 μM of the test compound (to assess protein synthesis levels in unstressed condition), or for 2 hours with 300 nM Tg in the presence of 1 μM of the test compound (to assess the recovery of protein synthesis in a stressed condition). Cells with Tg alone were used as controls.
After the 2 hours treatments, media were replaced by adding 10 μg/ml puromycin (Sigma Aldrich # P8833) in complete media for 30 min. Media were removed and cells were lysed with SDS-PAGE lysis buffer. Lysates were transferred to 1.5 ml tubes and sonicated for 3 min and total protein amount were quantified using BCA Protein Assay Kit (Pierce). Equal amount of protein (30 μg) was loaded on SDS-PAGE gels. Proteins were transferred onto 0.2 μm PVDF membranes (BioRad) and probed with primary antibodies diluted in Tris-buffered saline supplemented with 0.1% Tween 20 (Merck # S6996184 505) and 3% bovine serum albumin (Rockland # BSA-50).
Puromycin (12D10) (Merck # MABE343) and β-actin (Sigma Aldrich # A5441) antibodies were used as primary antibody. A HRP-conjugated secondary antibody (Rockland) was employed to detect immune-reactive bands using enhanced chemiluminescence (ECL Western Blotting Substrate, Pierce). Quantification of protein bands was done by densitometry using ImageJ software.
Percent increase of protein synthesis in unstressed cells (without Tg treatment) in the presence of media alone or certain test compounds is shown in Table 3. The percentage levels were normalized to the media alone condition, which correspond to 100% protein synthesis.
Percent recovery of protein synthesis in stressed cells (with Tg treatment) due to the test compounds at 1 μM is also shown in Table 3. The levels were normalized to the media alone and Tg alone conditions, which correspond to 100% and 0% respectively.

| SMILES | IC50 (ATF4) [nM] | activity at 1 µM [1] [%] | % Recovery of protein synthesis (1 μM test compound) [1] [%] |
| --- | --- | --- | --- |
| O=C(NCC1CCN(C[C@@H](O)COc2ccc(Cl)c(F)c2)C1)c1ccc2cc(Cl)ccc2n1 (stereo partly drawn) [Compound 80, 6-chloro-N-((1-((R)-3-(4-chloro-3-fluorophenoxy)-2-hydroxypropyl)pyrrolidin-3-yl)methyl)quinoline-2-carboxamide] | > 100 | 153 | 23.9 |
| O=C(NC1CCC(NC[C@@H](O)COc2ccc(Cl)c(F)c2)C1)c1cc2cc(Cl)ccc2o1 (stereo partly drawn) [Compound 82, 5-chloro-N-(3-(((R)-3-(4-chloro-3-fluorophenoxy)-2-hydroxypropyl)amino)cyclopentyl)benzofuran-2-carboxamide] | > 1000 | 160 | 176.4 |
| O=C(NC1CCC(NC[C@H](O)COc2ccc(Cl)c(F)c2)C1)c1cc2cc(Cl)ccc2o1 (stereo partly drawn) [Compound 83, 5-chloro-N-(3-(((S)-3-(4-chloro-3-fluorophenoxy)-2-hydroxypropyl)amino)cyclopentyl)benzofuran-2-carboxamide] | > 1000 | 129 | 175.2 |
| O=C(COc1ccc(Cl)c(F)c1)NCC1CCC(NC(=O)c2ccc3cc(Cl)ccc3n2)C1 (stereo not drawn) [Compound 85, 6-chloro-N-(3-((2-(4-chloro-3-fluorophenoxy)acetamido)methyl)cyclopentyl)quinoline-2-carboxamide] | < 1000 | 88 |  |
| O=C(COc1ccc(Cl)c(F)c1)NCC1CCC(NC(=O)c2cc3cc(Cl)ccc3o2)C1 (stereo not drawn) [Compound 86, 5-chloro-N-(3-((2-(4-chloro-3-fluorophenoxy)acetamido)methyl)cyclopentyl)benzofuran-2-carboxamide] | < 100 | 94.2 |  |
| O=C(COc1ccc(Cl)c(F)c1)NC1CCC(CNC(=O)c2ccc3cc(Cl)ccc3n2)C1 (stereo not drawn) [Compound 87, 6-chloro-N-((3-(2-(4-chloro-3-fluorophenoxy)acetamido)cyclopentyl)methyl)quinoline-2-carboxamide] | < 1000 | 83.9 |  |
| O=C(COc1ccc(Cl)c(F)c1)NC1CCC(CNC(=O)c2cc3cc(Cl)ccc3o2)C1 (stereo not drawn) [Compound 88, 5-chloro-N-((3-(2-(4-chloro-3-fluorophenoxy)acetamido)cyclopentyl)methyl)benzofuran-2-carboxamide] | < 1000 | 76.4 |  |
| O=C(COc1ccc(Cl)c(F)c1)NCC1CCC(NCC(O)COc2ccc(Cl)c(F)c2)C1 (stereo not drawn) [Compound 89, 2-(4-chloro-3-fluorophenoxy)-N-((3-((3-(4-chloro-3-fluorophenoxy)-2-hydroxypropyl)amino)cyclopentyl)methyl)acetamide] | > 1000 | 119 | 42.5 |
| O=C(NC1CC[C@H](NC[C@@H](O)COc2ccc(Cl)c(F)c2)C1)c1cc2cc(Cl)ccc2o1 (stereo partly drawn) [Compound 90, 5-chloro-N-((3S)-3-(((R)-3-(4-chloro-3-fluorophenoxy)-2-hydroxypropyl)amino)cyclopentyl)benzofuran-2-carboxamide] | 57.8 | 210 | 269.7 |
| O=C(COc1ccc(Cl)c(F)c1)NCC1CCN(NC(=O)COc2ccc(Cl)c(F)c2)C1 (stereo not drawn) [Compound 92, 2-(4-chloro-3-fluorophenoxy)-N-(3-((2-(4-chloro-3-fluorophenoxy)acetamido)methyl)pyrrolidin-1-yl)acetamide] | 14.1 | 93.6 | 45.8 |
| O=C(N[C@H]1CC[C@H](NC[C@@H](O)COc2ccc(Cl)c(F)c2)C1)c1cc2cc(Cl)ccc2o1 [Compound 94, 5-chloro-N-((1S,3S)-3-(((R)-3-(4-chloro-3-fluorophenoxy)-2-hydroxypropyl)amino)cyclopentyl)benzofuran-2-carboxamide] | 24.3 | 169 | 298.3 |
| O=C(N[C@@H]1CC[C@@H](NC[C@@H](O)COc2ccc(Cl)c(F)c2)C1)c1cc2cc(Cl)ccc2o1 [Compound 95, 5-chloro-N-((1R,3R)-3-(((R)-3-(4-chloro-3-fluorophenoxy)-2-hydroxypropyl)amino)cyclopentyl)benzofuran-2-carboxamide] | < 1000 | 186 | 170.5 |
| O=C(COc1ccc(Cl)c(F)c1)NC[C@@H]1CCN(NC(=O)c2cc3cc(Cl)ccc3o2)C1 [Compound 96, (S)-5-chloro-N-(3-((2-(4-chloro-3-fluorophenoxy)acetamido)methyl)pyrrolidin-1-yl)benzofuran-2-carboxamide] | 4.97 | 110 | 24.5 |
| O=C(COc1ccc(Cl)c(F)c1)NC[C@H]1CCN(NC(=O)c2cc3cc(Cl)ccc3o2)C1 [Compound 97, (R)-5-chloro-N-(3-((2-(4-chloro-3-fluorophenoxy)acetamido)methyl)pyrrolidin-1-yl)benzofuran-2-carboxamide] | 25 | 109 |  |

Now from value to molecule, other results behind:

| IC50 (ATF4) [nM] | SMILES | activity at 1 µM [1] [%] | % Recovery of protein synthesis (1 μM test compound) [1] [%] |
| --- | --- | --- | --- |
| > 1000 | O=C(NC1CCN(CC(O)COc2ccc(Cl)c(F)c2)C1)c1ccc2cc(Cl)ccc2n1 (stereo not drawn) [Compound 53, 6-chloro-N-(1-(3-(4-chloro-3-fluorophenoxy)-2-hydroxypropyl)pyrrolidin-3-yl)quinoline-2-carboxamide] | 102 | 37.93 |
| > 1000 | O=C(NC1CCN(CCCOc2ccc(Cl)c(F)c2)C1)c1ccc2cc(Cl)ccc2n1 (stereo not drawn) [Compound 56, 6-chloro-N-(1-(3-(4-chloro-3-fluorophenoxy)propyl)pyrrolidin-3-yl)quinoline-2-carboxamide] | 100 | 32.73 |
| 1000 | O=C(NCC1CCN(C[C@H](O)COc2ccc(Cl)c(F)c2)C1)c1ccc2cc(Cl)ccc2n1 (stereo partly drawn) [Compound 81, 6-chloro-N-((1-((S)-3-(4-chloro-3-fluorophenoxy)-2-hydroxypropyl)pyrrolidin-3-yl)methyl)quinoline-2-carboxamide] | 134 | 38.7 |
| > 100 | O=C(COc1ccc(Cl)c(F)c1)NCC1CCC(NC(=O)COc2ccc(Cl)c(F)c2)C1 (stereo not drawn) [Compound 84, 2-(4-chloro-3-fluorophenoxy)-N-((3-(2-(4-chloro-3-fluorophenoxy)acetamido)cyclopentyl)methyl)acetamide] | 80.3 |  |
| 1240 | O=C(NC1CC[C@H](NC[C@H](O)COc2ccc(Cl)c(F)c2)C1)c1cc2cc(Cl)ccc2o1 (stereo partly drawn) [Compound 91, 5-chloro-N-((3S)-3-(((S)-3-(4-chloro-3-fluorophenoxy)-2-hydroxypropyl)amino)cyclopentyl)benzofuran-2-carboxamide] | 190 | 209.4 |
| 2.8 | O=C(COc1ccc(Cl)c(F)c1)NCC1CCN(NC(=O)c2ccc3cc(Cl)ccc3n2)C1 (stereo not drawn) [Compound 93, 6-chloro-N-(3-((2-(4-chloro-3-fluorophenoxy)acetamido)methyl)pyrrolidin-1-yl)quinoline-2-carboxamide] | 102 | 51.4 |
